Test results as given in US7544703B2, “Cyclic compound having 4-pyridylalkylthio group having substituted or unsubstituted amino group introduced therein” (Santen Pharmaceutical Co., Ltd., priority 2004, dated 2009).
Counter-ions that a name gives are not always drawn.

What was measured:
[1] = tested on: HUVEC (normal human umbilical vein endothelial cells); assay: VEGF-induced HUVEC proliferation: cell proliferation inhibitory action test; assay type: cell-based; settings: 72 h, 5 μL of 20 μg/mL test compound solution per well, WST-8 absorbance at 450 nm three days after VEGF addition, read-out: Cell proliferation inhibition rate (%);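 also: each well holds 100 µL cell suspension before compound addition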
Method: A cell proliferation inhibitory action test of the compounds of the present invention was performed using a VEGF-induced HUVEC proliferation evaluation system (HUVEC stands for normal human umbilical vein endothelial cells), which is one of the widely-used methods of evaluating in vitro angiogenesis inhibitory effects of drugs. As one of the widely-used methods of evaluating angiogenesis inhibitory effects of drugs, a cell proliferation inhibitory action test using a VEGF-induced HUVEC proliferation reaction evaluation system has been reported in Cancer Res., 59, 99-106 (1999). According to the method described in the above-mentioned document, a cell proliferation inhibitory action test of the compounds of the present invention was performed, the cell proliferation inhibition rate was calculated, and the angiogenesis inhibitory effect of each of the compounds of the present invention was evaluated using the obtained rate as an index. Each test compound was dissolved in dimethyl sulfoxide (hereinafter abbreviated as DMSO), and the obtained solution was diluted with a commercially available phosphoric acid buffer solution (hereinafter abbreviated as PBS), whereby a 20 μg/mL test compound solution was prepared. HUVEC was suspended in a 0.5% fetal bovine serum (hereinafter abbreviated as FBS)-containing F12K medium, whereby a 2×10^4 cells/mL HUVEC suspension was prepared. VEGF was dissolved in 0.1% bovine serum albumin-containing PBS, and the obtained solution was diluted with the 0.5% FBS-containing F12K medium, whereby a 400 ng/mL VEGF solution was prepared. • 1) The HUVEC suspension was inoculated in an amount of 100 μL into each well of a 96-well plate coated with type I collagen (2×10^3 cells per well). • 2) One day after the inoculation, the test compound solution was added in an amount of 5 μL per well. • 3) One hour after the addition of the test compound solution, the VEGF solution was added in an amount of 5 μL per well. • 4) Three days after the addition of the VEGF solution, WST-8 assay kit (Dojin Chemical Co., Ltd.) was added in an amount of 10 μL per well. • 5) After 3 hours, the above-mentioned plate was attached to an absorptiometer (Multilabel Counter ARVO), and an absorbance at 450 nm of each well suspension (hereinafter referred to as test compound suspension) was measured. • 6) A test was carried out in the same manner as in the above 1) to 5) except that 1.0% DMSO was used instead of the test compound solution. The result was used as a control. Incubation was carried out under conditions of 37° C., 5% carbon dioxide and […] in an incubator throughout the above-mentioned test steps. The cell proliferation inhibition rate (%), which was used as an index of an angiogenesis inhibitory effect, was calculated according to the following calculation equation. Cell proliferation inhibition rate (%)=100−{(Absorbance of test compound suspension−A)/(absorbance of control−A)}×100 (Calculation Equation) A: Absorbance of only cell suspension (cell+medium) (Test Results and Discussion)

[2] = tested on: adjuvant arthritis models in rats; assay: Paw edema inhibitory action test using adjuvant arthritis models in rats; assay type: in vivo; settings: 504 h; Lewis rat, adjuvant-untreated (secondary inflammation) paw, day 21; 10 mg/kg/day oral once a day, day 0 to day 20; average of 8 rats per group; read-out: Paw edema inhibition rate (%)
Method: A paw edema inhibitory action test of the compounds of the present invention was performed using an adjuvant arthritis model in rats, which is one of the widely-used methods of evaluating in vivo antiarthritis effects of drugs.
As one of the widely-used methods of evaluating antiarthritic effects of drugs, a paw edema inhibitory action test using adjuvant arthritis models in rats is known. Accordingly, a paw edema inhibitory action test of the compounds of the present invention was performed, the paw edema inhibition rate was calculated, and the antiarthritic effect of each of the compounds of the present invention was evaluated using the obtained rate as an index.
A 1% aqueous methyl cellulose solution was added to each test compound to suspend it, whereby a 2 mg/mL test compound suspension was prepared.
Liquid paraffin was added to Mycobacterium butyricum to suspend it, whereby 6 mg/mL adjuvant was prepared.
• 1) The adjuvant (0.1 mL) was injected subcutaneously into a left hind paw sole of each rat (male, 9 weeks of age, Lewis rat) to induce arthritis. • 2) From the adjuvant injection day (i.e. on day 0) to day 20, the test compound suspension (10 mg/kg/day) was orally administered once a day consecutively. • 3) On the adjuvant injection day, day 1, day 4, day 7, day 11, day 14, day 18 and day 21, each paw volume of both hind paws was measured with a plethysmometer. • 4) A test was performed in the same manner as in 1) to 3) except that the 1% aqueous methyl cellulose solution was used instead of the test compound suspension, and the result was used as a control. (Method of Evaluation)
Each paw edema inhibition rate of paw edema in an adjuvant-untreated paw (secondary inflammation paw) in each test compound administration group to paw edema in a secondary inflammation paw in a control group was calculated, and the antiarthritic effect of each of the compounds of the present invention was evaluated using the obtained rate as an index.
The paw edema rate was calculated according to the following calculation equation 1, and then the paw edema inhibition rate (the average of 8 rats per group), which was used as an index of the antiarthritic effect, was calculated according to the calculation equation 2. Paw edema rate (%)=(Paw volume after adjuvant treatment/paw volume before adjuvant treatment)×100 (Calculation Equation 1) Paw edema inhibition rate (%)=100−{(Sx−100)/(So−100)}×100 (Calculation Equation 2) So: Paw edema rate of control group Sx: Paw edema rate of test compound suspension administration group (Test Results and Discussion)

B16 cells = assay: Tumor growth inhibitory action test using cancer models in mice (B16 cells); assay type: in vivo; settings: C57BL/6N mouse, B16 cells intradermal; 100 mg/kg/day oral once a day, day 0 to day 10; average of 9 mice per group; read-out: Tumor tissue weight inhibition rate (%)
Method: A tumor growth inhibitory action test of the compounds of the present invention was performed using a tumor growth model in mice, which is one of the widely-used methods of evaluating in vivo anticancer effects of drugs.
As one of the widely-used methods of evaluating anticancer effects of drugs, a tumor growth inhibitory action test using cancer models in mice has been reported in Cancer Res., 59, 5209-5218 (1999). According to the method described in the above-mentioned document, a tumor growth inhibitory action test of the compounds of the present invention was performed, the tumor tissue weight inhibition rate was calculated, and the anticancer effect of each of the compounds of the present invention was evaluated using the obtained rate as an index.
A 1% aqueous methyl cellulose solution was added to each test compound to suspend it with a sonicator, whereby a 10 mg/mL test compound suspension was prepared.
Physiological saline was added to B16 cells, whereby a 3.3×10^7 cells/mL B16 cell suspension was prepared.
• 1) The back of each mouse (female, 6 weeks of age, C57BL/6N mouse) was depilated using a depilatory under Nembutal anesthesia. • 2) Several days after the depilation, the B16 cell suspension (300 μL) was injected intradermally into the back of the mouse under Nembutal anesthesia. • 3) From the B16 cell injection day (i.e. on day 0) to day 10, the test compound suspension (100 mg/kg/day) was orally administered once a day consecutively. • 4) Ten days after the injection of the cells, the mouse was euthanized with CO2 gas. • 5) A tumor tissue was enucleated from the mouse, and the weight of the tumor tissue was measured with an electronic balance. • 6) A test was performed in the same manner as in 1) to 5) except that the 1% aqueous methyl cellulose solution was used instead of the test compound suspension, and the result was used as a control. (Calculation of Tumor Tissue Weight Inhibition Rate)
A tumor tissue weight inhibition rate (the average of 9 mice per group), which was used as an index of anticancer effect, was calculated according to the following calculation equation. Tumor tissue weight inhibition rate (%)=100−(Mx/Mo)×100 (Calculation Equation) Mo: Tumor tissue weight of control group Mx: Tumor tissue weight of test compound solution administration group (Test Results and Discussion)

[3] = tested on: choroidal neovascularization models in rats; assay: Neovascularization incidence test using laser-induced choroidal neovascularization models in rats; assay type: in vivo; settings: 168 h; Brown Norway rat, krypton laser photocoagulation; 30 mg/kg/day oral once a day for 7 days; fluorescein fundus photography on day 7; average of 3 to 4 rats and 6 to 8 eyes; read-out: Ratio of neovascularization incidence rate (% of Control)
Method: A neovascularization incidence test of the compounds of the present invention was performed using a choroidal neovascularization model in rats, which is one of the widely-used methods of evaluating in vivo choroidal neovascularization inhibitory effects of drugs.
As one of the widely-used methods of evaluating choroidal neovascularization inhibitory effects of drugs, a neovascularization incidence test using choroidal neovascularization models in rats was reported in Graefe's Arch. Cli. Exp. Ophthalmol., 235, 313-319 (1997). According to the method described in the above-mentioned document, a neovascularization incidence test of the compounds of the present invention was performed, the ratio of neovascularization incidence rate of each of the compounds of the present invention administration groups to a neovascularization incidence rate of vehicle administration group (control group) was calculated, and the choroidal neovascularization inhibitory effect of each of the compounds of the present invention was evaluated using the obtained ratio as an index.
A 1% aqueous methyl cellulose solution was added to each test compound to suspend it, whereby a 6 mg/10 mL test compound suspension was prepared.
• 1) A 7:1 mixed solution (1 mL/kg) of a 5% ketamine hydrochloride injection and a 2% xylazine hydrochloride injection was administered intramuscularly to rats (Brown Norway male rat, 8 weeks of age, weight: 200 to 250 g) to anesthetize them systemically. • 2) A tropicamide-phenylephrine hydrochloride ophthalmic solution (trade name: Mydrin-P) was instilled into eyes to cause mydriasis, and then photocoagulation was performed in a Bruch's membrane of each rat using a krypton laser photocoagulation apparatus.
The laser photocoagulation was performed at 8 spots per eye sparsely avoiding thick retinal vessels in a posterior section of ocular fundus and focusing on the deep layer of the retina. Photocoagulation conditions were adjusted to 100 μm of spot size, 100 mW of intensity and 0.1 sec. dulation. • 3) After the photocoagulation, the ocular fundus was photographed to confirm photocoagulation (laser irradiation) sites. (Method of Test and Method of Measurement) • 1) From the laser photocoagulation day (i.e. on day 0) to day 6, the test compound suspension (30 mg/kg/day) was administered orally once a day for 7 consecutive days. • 2) As the vehicle administration group (control group), a test was performed in the same manner as in 1) except that the 1% aqueous methyl cellulose solution was used instead of the test compound suspension, and the result was used as a control. (Method of Evaluation) • 1) On day 7 after the photocoagulation, 0.1 mL of a 10% aqueous fluorescein solution was injected into a tail vein of the rat, and fluorescein fundus photography was performed. • 2) Next, in the fluorescein fundus photography, a spot where fluorescence leak was not observed was judged as negative, and a spot where fluorescence leak was observed was judged as positive. Photocoagulation sites where a little fluorescence leak was observed were judged as positive when two such sites are present. • 3) The neovascularization incidence rate was calculated according to the calculation equation 1. The ratio of the neovascularization incidence rate of the test compound administration group to that of the vehicle administration group was calculated according to the calculation equation 2 using the neovascularization incidence rate of the respective administration groups. […]

Row | Compound | inhibition at 20 µg/mL (stock) [1] [%] | inhibition in vivo at 10 mg/kg/day [2] [%] | inhibition in vivo at 100 mg/kg/day (B16 cells) [%] | response vs control in vivo at 30 mg/kg/day [3] [%]
1 | CNc1cc(CSc2ncccc2C(=O)Nc2cc(C)cc(C)c2)ccn1 [Compound 3-6, N-(3,5-Dimethylphenyl)-2-(2-methylaminopyridin-4-ylmethylthio)pyridine-3-carboxamide monohydrochloride] | 100 | 33 | 71 | –
2 | CC(=O)N1CCN(c2cc(CSc3ncccc3C(=O)Nc3cc(C)cc(C)c3)ccn2)CC1 [Compound 1-6, 2-[2-(4-Acetylpiperazin-1-yl)pyridin-4-ylmethylthio]-N-(3,5-dimethylphenyl)pyridine-3-carboxamide] | 100 | – | 42 | 38
3 | CC(=O)Nc1cc(CSc2ncccc2C(=O)Nc2cccc(C)c2)ccn1 [Compound 4-20, 2-(2-Acetylaminopyridin-4-ylmethylthio)-N-(3-methylphenyl)pyridine-3-carboxamide] | – | – | 84 | 22
